Assay results: patent US12344610B2, “APOL1 inhibitors and methods of use” (Maze Therapeutics, Inc., priority 2022, dated 2025)

Each molecule was assayed on human immortalized podocytes inducibly expressing APOL1 G2 (assay: APOL1 G2 podocyte cell rescue assay (Example B4)). Conditions: Homo sapiens, differentiated human podocytes, doxycycline-induced APOL1 G2, CellTiter-Glo; geometric mean of at least 2 runs; † = single run.
Assay type: cell-based
Method: APOL1 G2 human immortalized podocyte viability assay for measurement of cytotoxicity reversal by compound (APOL1 G2 podocyte cell rescue assay).
Cell Handling. The hTERT-immortalized kidney podocyte cell line was procured from the laboratory of Dr. Moin Saleem at the University of Bristol, UK (Nephrology 17 (2012) 525-531; doi:10.1111/j.1440-1797.2012.01619.x; herein incorporated by reference in its entirety). Parental and engineered cell lines were cultured in RPMI 1640 media (Gibco, 11875093) with 10% Tet System Approved FBS (Takara, 631101). The engineered cell line was maintained under selection (2.5 μg/mL puromycin). Cell lines were maintained and engineered at 33° C. Cell cultures were transferred to 37° C. for 10 to 14 days to initiate differentiation (Nephrology 17 (2012) 525-531; doi:10.1111/j.1440-1797.2012.01619.x; herein incorporated by reference in its entirety). During this time, media was refreshed every 3 days. After differentiation, cells engineered to inducibly express APOL1 G2 were used in the podocyte cell rescue assay.
Cell Line Engineering. The APOL1 G2 coding sequence was cloned into the pLVX-TetOne-Puro vector and verified by sequencing (Genscript Biotech). This construct was designed to have a C-terminal HiBiT tag. Lentiviral packaging of the vector was conducted using the Lenti-X Packaging Single Shots (VSVG) system according to manufacturer instructions (Takara Bio, 631275). A stable cell line was generated by transfecting the parental podocyte cell line with the concentrated virus in media with 5 μg/mL polybrene (Sigma, TR-1003-G). Media was changed the following day. 72 hours post transfection, 2.5 μg/mL puromycin (Gibco, A1113803) was added to the cells and cells were maintained in selection media thereafter. This APOL1 G2 stable cellular pool was subjected to a stringent limiting dilution to generate a pure stable clone (Podocyte/pLVX-TetOne APOL1 G2/clone D10) capable of inducible expression of APOL1 G2.
Assay Setup. T175 flasks containing differentiated podocytes engineered to inducibly express APOL1 G2 (Podocyte/pLVX-TetOne APOL1 G2/clone D10) were washed once with 15 mL of DPBS (Thermo Fisher, 14190-144). These flasks were each trypsinized with 3 mL of prewarmed TrypLE Express (Gibco, 12605-010) and incubated at 37° C. with 5% CO2 until cells detached and neutralized with 7 mL of prewarmed assay media (RPMI 1640 media with 10% Tet System Approved FBS, no selection agent). Cells were pooled and the resulting suspension was gently mixed. The cell suspension was counted using a Countess Cell Counting Chamber (Invitrogen) and the cell concentration was adjusted to 240,000 cells/mL using assay media. Next, 25 μL of a 480 ng/mL working stock of doxycycline diluted in assay media was added to an assay ready plate. All experiments were performed in 384-well, white, solid bottom, tissue culture treated plates (Greiner, 781080). The assay ready compound plates were generated with duplicate 8-point compound dilution series that consisted of 3-fold stepwise dilutions (0.4% DMSO final). The plates were centrifuged at 1000 rpm for 1 minute. 25 μL of diluted cell suspension (final cell density=6,000 cells/well) was added to each well. The plates were centrifuged again at 1000 rpm for 1 minute and then incubated in a humidified incubator (37° C. with 5% CO2). After 95 hours, the assay plates were removed from the incubator and allowed to equilibrate to room temperature for 1 hour. CellTiter-Glo® reagent (Promega, G7570) was prepared according to the manufacturer's instructions. 25 μL of CellTiter-Glo® reagent was added to each well. Assay plates were sealed with foil and mixed for 5 minutes on an orbital shaker (500 rpm) to induce cell lysis. Plates were centrifuged at 1000 rpm for 1 minute. 10 minutes after CellTiter-Glo® reagent addition, an Envision plate reader (Perkin Elmer) was used to measure the luminescent signal of each assay plate. Collaborative Drug Discovery software was utilized for graphing data. […]

| SMILES | EC50 [nM] |
| --- | --- |
| CC(O)c1ncc(OCCN2CCC3(CC2)C(=O)Nc2ccc(C(F)F)cc23)cc1C(F)(F)F (single isomer, unassigned) [Compound 287, 5-(difluoromethyl)-1′-[2-({6-[(1S) or (1R)-1-hydroxyethyl]-5-(trifluoromethyl)pyridin-3-yl}oxy)ethyl]-1,2-dihydrospiro[indole-3,4′-piperidin]-2-one] | 17.7 |
| CC[C@]1(O)C[C@H](N2C(=O)CCc3cc(OCCN4CCC5(CC4)C(=O)Nc4ccc(Cl)cc45)cnc32)C1 (single isomer, unassigned) [Compound 290, 5-chloro-1′-[2-({7-oxo-8-[(trans)-3-ethyl-3-hydroxycyclobutyl]-5,6,7,8-tetrahydro-1,8-naphthyridin-3-yl}oxy)ethyl]-1,2-dihydrospiro[indole-3,4′-piperidin]-2-one] | 2.76 |
| C[C@]1(O)C[C@H](N2C(=O)CCc3cc(OCCN4CCC5(CC4)C(=O)Nc4ccc(Cl)cc45)cnc32)C1 (single isomer, unassigned) [Compound 307, 5-chloro-1′-[2-({7-oxo-8-[(trans)-3-hydroxy-3-methylcyclobutyl]-5,6,7,8-tetrahydro-1,8-naphthyridin-3-yl}oxy)ethyl]-1,2-dihydrospiro[indole-3,4′-piperidin]-2-one] | 2.61 |
| CS(=O)(=O)c1ccc(OCCN2CCC3(CC2)C(=O)N(CCO)c2ccc(Br)cc23)cc1 [Compound 24, 5-bromo-1-(2-hydroxyethyl)-1′-[2-(4-methanesulfonylphenoxy)ethyl]-1,2-dihydrospiro[indole-3,4′-piperidin]-2-one] | 37.4 |
| O=C(c1ccc(OCCN2CCC3(CC2)C(=O)Nc2ccc(Cl)cc23)cc1F)N1CCS(=O)(=O)CC1 [Compound 232, 4-[4-(2-{5-chloro-2-oxo-1,2-dihydrospiro[indole-3,4′-piperidin]-1′-yl}ethoxy)-2-fluorobenzoyl]-1λ^6-thiomorpholine-1,1-dione] | 2.17 |
| CS(=O)(=O)C1CN(C(=O)c2ccc(OCCN3CCC4(CC3)C(=O)Nc3ccc(Cl)cc34)cc2F)C1 [Compound 233, 5-chloro-1′-{2-[3-fluoro-4-(3-methanesulfonyl-azetidine-1-carbonyl)phenoxy]ethyl}-1,2-dihydrospiro[indole-3,4′-piperidin]-2-one] | 4.25 |
| O=C(c1ccc(OCCN2CCC3(CC2)C(=O)Nc2ccc(Cl)cc23)cc1F)N1CC2(C1)CS(=O)(=O)C2 [Compound 239, 6-[4-(2-{5-chloro-2-oxo-1,2-dihydrospiro[indole-3,4′-piperidin]-1′-yl}ethoxy)-2-fluorobenzoyl]-2λ^6-thia-6-azaspiro[3.3]heptane-2,2-dione] | 2.1 |
| O=C(c1c(F)cc(OCCN2CCC3(CC2)C(=O)Nc2ccc(Cl)cc23)cc1F)N1CCS(=O)(=O)CC1 [Compound 259, 4-[4-(2-{5-chloro-2-oxo-1,2-dihydrospiro[indole-3,4′-piperidin]-1′-yl}ethoxy)-2,6-difluorobenzoyl]-1λ^6-thiomorpholine-1,1-dione] | 1.21 |
| CN1C(=O)C2(CCN(CCOc3cc(F)c(C(=O)N4CCS(=O)(=O)CC4)c(F)c3)CC2)c2cc(C#N)ccc21 [Compound 260, 1′-{2-[4-(1,1-dioxo-1λ^6-thiomorpholine-4-carbonyl)-3,5-difluorophenoxy]ethyl}-1-methyl-2-oxo-1,2-dihydrospiro[indole-3,4′-piperidine]-5-carbonitrile] | 10.3 |
| CN1C(=O)C2(CCN(CCOc3ccc(C(=O)N4CCS(=O)(=O)CC4)c(C(F)(F)F)c3)CC2)c2cc(C#N)ccc21 [Compound 261, 1′-{2-[4-(1,1-dioxo-1λ^6-thiomorpholine-4-carbonyl)-3-(trifluoromethyl)phenoxy]ethyl}-1-methyl-2-oxo-1,2-dihydrospiro[indole-3,4′-piperidine]-5-carbonitrile] | 2.29 |
| O=C(c1ccc(OCCN2CCC3(CC2)C(=O)Nc2ccc(Cl)cc23)cc1C(F)(F)F)N1CCS(=O)(=O)CC1 [Compound 272, 4-[4-(2-{5-chloro-2-oxo-1,2-dihydrospiro[indole-3,4′-piperidin]-1′-yl}ethoxy)-2-(trifluoromethyl)benzoyl]-1λ^6-thiomorpholine-1,1-dione] | 1 |
| CS(=O)(=O)N1CC2(CN(C(=O)c3ccc(OCCN4CCC5(CC4)C(=O)Nc4ccc(Cl)cc45)cc3F)C2)C1 [Compound 273, 5-chloro-1′-[2-(3-fluoro-4-{6-methanesulfonyl-2,6-diazaspiro[3.3]heptane-2-carbonyl}phenoxy)ethyl]-1,2-dihydrospiro[indole-3,4′-piperidin]-2-one] | 5.2 |
| C[C@]1(O)C[C@@H](N2C(=O)CCc3cc(OCCN4CCC5(CC4)C(=O)Nc4ccc(C(F)F)cc45)cnc32)C1 [Compound 274, 5-(difluoromethyl)-1′-[2-({7-oxo-8-[(cis)-3-hydroxy-3-methylcyclobutyl]-5,6,7,8-tetrahydro-1,8-naphthyridin-3-yl}oxy)ethyl]-1,2-dihydrospiro[indole-3,4′-piperidin]-2-one] | 18.8 |
| C[C@]1(O)C[C@@H](N2C(=O)CCc3cc(OCCN4CCC5(CC4)C(=O)Nc4ccc(Cl)cc45)cnc32)C1 [Compound 275, 5-chloro-1′-[2-({7-oxo-8-[(cis)-3-hydroxy-3-methylcyclobutyl]-5,6,7,8-tetrahydro-1,8-naphthyridin-3-yl}oxy)ethyl]-1,2-dihydrospiro[indole-3,4′-piperidin]-2-one] | 3.89 |
| CS(=O)(=O)C1(c2ncc(OCCN3CCC4(CC3)C(=O)Nc3ccc(Cl)cc34)cn2)COC1 [Compound 276, 5-chloro-1′-(2-{[2-(3-methanesulfonyloxetan-3-yl)pyrimidin-5-yl]oxy}ethyl)-1,2-dihydrospiro[indole-3,4′-piperidin]-2-one] | 10.4 |
| CS(=O)(=O)C1(c2ncc(OCCN3CCC4(CC3)C(=O)Nc3ccc(C#N)cc34)cc2F)CC1 [Compound 283, 1′-(2-{[5-fluoro-6-(1-methanesulfonylcyclopropyl)pyridin-3-yl]oxy}ethyl)-2-oxo-1,2-dihydrospiro[indole-3,4′-piperidine]-5-carbonitrile] | 5.08 |
| CC(O)c1ncc(OCCN2CCC3(CC2)C(=O)Nc2ccc(Cl)cc23)cn1 (centres unmarked) [Compound 284, 5-chloro-1′-(2-{[2-(1-hydroxyethyl)pyrimidin-5-yl]oxy}ethyl)-1,2-dihydrospiro[indole-3,4′-piperidin]-2-one] | 105 |
| C[C@]1(O)C[C@@H](N2C(=O)OCc3cc(OCCN4CCC5(CC4)C(=O)Nc4ccc(Cl)cc45)cnc32)C1 [Compound 289, 5-chloro-1′-[2-({2-oxo-1-[(cis)-3-hydroxy-3-methylcyclobutyl]-1H,2H,4H-pyrido[2,3-d][1,3]oxazin-6-yl]oxy)ethyl]-1,2-dihydrospiro[indole-3,4′-piperidin]-2-one] | 2.22 |
| CC1(O)CN(c2ncc(OCCN3CCC4(CC3)C(=O)Nc3ccc(Cl)cc34)cn2)C1 [Compound 300, 5-chloro-1′-(2-{[2-(3-hydroxy-3-methylazetidin-1-yl)pyrimidin-5-yl]oxy}ethyl)-1,2-dihydrospiro[indole-3,4′-piperidin]-2-one] | 33.3 |

Same assay, conditions: differentiated human podocytes, doxycycline-induced APOL1 G2, CellTiter-Glo; geometric mean of at least 2 runs; † = single run

| SMILES | EC50 [nM] |
| --- | --- |
| CC(O)c1ncc(OCCN2CCC3(CC2)C(=O)Nc2ccc(C(F)F)cc23)cc1C(F)(F)F (single isomer, unassigned) [Compound 288, 5-(difluoromethyl)-1′-[2-({6-[(1R) or (1S)-1-hydroxyethyl]-5-(trifluoromethyl)pyridin-3-yl}oxy)ethyl]-1,2-dihydrospiro[indole-3,4′-piperidin]-2-one] | 19.5 |
